As a reminder, the IC50 is the concentration that gives 50% inhibition.

The text below walks through data of paper PMC12278645, “Design, synthesis, and antitumor activity of novel thioheterocyclic nucleoside derivatives by suppressing the c-MYC pathway” (Acta Pharmaceutica Sinica. B, 2025).

Experiment [1] deals with CT26 (mouse colon cancer). Briefly: CCK-8 anti-proliferation assay, CT26. The note with it: CCK-8, 48 h, mean ± SD. Format: cell-based. How it is done:
(§1) To evaluate their spectrum of anti-proliferative activity, further CCK-8 assays were carried out with the selected compounds (5a/5b, 8a/8b, 33a/33b, and 36a/36b) on MCF-7 (human breast cancer), A375 (human malignant melanoma), DU145 (human prostate cancer), and CT26 (mouse colon cancer) cell lines. The selected compounds had moderate to potent antitumor activity on the four cell lines, indicating their broad spectrum of antitumor activity (Table 5).
(§2) MCF-7, A375, and HeLa cells were cultured in DMEM, HCT116 cells were cultured in McCoy's 5A medium, and DU145 and CT26 were cultured in RPMI 1640 with 10% FBS, 1% penicillin-streptomycin solution (10,000 U/mL penicillin and 10,000 μg/mL streptomycin) at 37 °C under 5% CO2. The cells were seeded in 96-well plates (4 × 10^3 cells/well) overnight and then treated with various concentrations (1–50 μmol/L) of the compound. After 48 h, the cell viability was measured by CCK-8 assay. The absorbance of each well was measured using a microplate reader (Multiskan FC, Thermo Fisher Scientific, Massachusetts, USA) at 450 nm wavelength. Assays were performed in triplicate. Compound concentrations that inhibited cell growth by 50% (IC50) were calculated from the dose–response curves of each cell line. Data are mean ± SD values from three independent experiments.
On the technique in general: Formazan colour is commonly taken as a measure of viable cells.

Experiment [2] has as its system HeLa cells. The experiment is described as follows: CCK-8 anti-proliferation assay, HeLa. Format: cell-based, human. The note with it: CCK-8, 48 h, mean ± SD, three independent experiments. The protocol:
(§3) Tumor cell anti-proliferation activities were determined by cell counting kit-8 (CCK-8) assay.
as §2

Experiment [3] deals with DU145 (human prostate cancer). Briefly: CCK-8 anti-proliferation assay, DU145. Format: cell-based. As to conditions: CCK-8, 48 h, mean ± SD. The protocol: as §1, §2
Experiment [4] concerns MCF-7 (human breast cancer). Briefly: CCK-8 anti-proliferation assay, MCF-7. The format is cell-based. The note with it: CCK-8, 48 h, mean ± SD. How it is done:
as §1, §2

Experiment [5] concerns A375 (human malignant melanoma). The experiment is described as follows: CCK-8 anti-proliferation assay, A375. The format is cell-based. As to conditions: CCK-8, 48 h, mean ± SD. The protocol: as §1, §2
Experiment [6] concerns HCT116 cells. Briefly: CCK-8 anti-proliferation assay, HCT116. The note with it: CCK-8, 48 h, mean ± SD, three independent experiments. Format: cell-based, human. How it is done: as §3, §2

Structures are written as SMILES.

Regarding `N.N.[Cl][Pt][Cl]` [Cisplatin, cisplatin, reference compound], the IC50 in experiment [1] was determined as 22.5 ± 1.28 µM; in experiment [2] it was 11.2 ± 0.81 µM; in experiment [3], 9.65 ± 0.48 µM; in experiment [4], 6.32 ± 0.74 µM; in experiment [5], 9.42 ± 0.87 µM; in experiment [6] it was 5.29 ± 0.25 µM.
